Measured values published in PubChem BioAssay (NCI).
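48-hour exposure; five concentrations; linearly interpolated endpoints. The concentration for 50% growth inhibition is given as GI50. TGI: concentration producing complete growth inhibition.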

Legend:
Assay in all cases: inhibition of tumour cell growth, NCI panel, 48 h
[1] = tested on: HCT-15 colon
[2] = tested on: SNB-75 CNS
[3] = tested on: UACC-62 melanoma
[4] = tested on: SW-620 colon
[5] = tested on: A549 NSCLC
[6] = tested on: 786-0 renal
[7] = tested on: IGROV1 ovarian
[8] = tested on: SK-OV-3 ovarian
[9] = tested on: HCT-116 colon
[10] = tested on: LOX IMVI melanoma
[11] = tested on: UO-31 renal
[12] = tested on: NCI-H23 lung
[13] = tested on: HOP-92 NSCLC
[14] = tested on: T-47D breast
[15] = tested on: SR leukemia
[16] = tested on: CAKI-1 renal
[17] = tested on: SK-MEL-2 melanoma
[18] = tested on: HT29 colon
[19] = tested on: TK-10 renal
[20] = tested on: SK-MEL-5 melanoma
[21] = tested on: OVCAR-5 ovarian
[22] = tested on: HCC-2998 colon
[23] = tested on: BT-549 breast
[24] = tested on: MDA-MB-435
[25] = tested on: HOP-62 NSCLC
[26] = tested on: MOLT-4 leukemia
[27] = tested on: MDA-MB-231 breast
[28] = tested on: SF-295 CNS
[29] = tested on: COLO 205 colon
[30] = tested on: PC-3 prostate
[31] = tested on: NCI-H226 lung
[32] = tested on: U251 CNS
[33] = tested on: RPMI-8226 leukemia
[34] = tested on: NCI-H522 lung
[35] = tested on: NCI-H460 lung
[36] = tested on: OVCAR-8 ovarian
[37] = tested on: NCI/ADR-RES ovarian
[38] = tested on: K-562 leukemia
[39] = tested on: DU-145 prostate
[40] = tested on: SN12C renal
[41] = tested on: SNB-19 CNS
[42] = tested on: OVCAR-3 ovarian
[43] = tested on: EKVX NSCLC
[44] = tested on: SF-268 CNS
[45] = tested on: UACC-257 melanoma
[46] = tested on: HL-60(TB) leukemia
[47] = tested on: HS 578T breast
[48] = tested on: MALME-3M melanoma
[49] = tested on: ACHN renal
[50] = tested on: A498 renal
[51] = tested on: SF-539 CNS
[52] = tested on: OVCAR-4 ovarian
[53] = tested on: M14 melanoma
[54] = tested on: MCF7 breast
[55] = tested on: SK-MEL-28 melanoma
[56] = tested on: RXF 393 renal
[57] = tested on: KM12 colon
[58] = tested on: CCRF-CEM leukemia

In the case of COc1cnc2c(c1)C(=O)c1c-2n(CCCn2ccnc2)c(=O)c2cc(OC)c(OC)cc12, the GI50 [1] is reported as 1210 nM, the TGI [1] is reported as 3.14 µM and the GI50 [2] is reported as 67.3 nM. It also gave a TGI [2] of 1210 nM, a GI50 [3] of 40.1 nM and a TGI [3] of 1470 nM. It also gave a GI50 [4] of 127 nM, a TGI [4] of 2130 nM and a GI50 [5] of 465 nM. For the same compound, the TGI [5] was 11.7 µM, the GI50 [6] was 55.1 nM and the TGI [6] was 1280 nM. It also gave a GI50 [7] of 1240 nM, a TGI [7] of 6.21 µM and a GI50 [8] of 119 nM. It also gave a TGI [8] of 2270 nM, a GI50 [9] of 113 nM and a TGI [9] of 1710 nM. For the same compound, the GI50 [10] was 42.2 nM, the TGI [10] was 1120 nM and the GI50 [11] was 65.9 nM. The TGI [11] was 1370 nM, the GI50 [12] was 72.1 nM and the TGI [12] was 1620 nM. The GI50 [13] was 935 nM, the TGI [13] was 10.8 µM and the GI50 [14] was 41.1 nM. For the same compound, the TGI [14] was 1900 nM, the GI50 [15] was 20.4 nM and the TGI [15] was 6.64 µM. For the same compound, the GI50 [16] was 39.1 nM, the TGI [16] was 3.41 µM and the GI50 [17] was 17.3 µM. It also gave a TGI [17] of 31.5 µM, a GI50 [18] of 242 nM and a TGI [18] of 1750 nM. It also gave a GI50 [19] of 2940 nM, a TGI [19] of 8.09 µM and a GI50 [20] of 258 nM. For the same compound, the TGI [20] was 1480 nM, the GI50 [21] was 1030 nM and the TGI [21] was 3.1 µM. The GI50 [22] was 899 nM, the TGI [22] was 3.06 µM and the GI50 [23] was 416 nM. The TGI [23] was 6.62 µM, the GI50 [24] was 710 nM and the TGI [24] was 4.79 µM. For the same compound, the GI50 [25] was 41.9 nM, the TGI [25] was 1300 nM and the GI50 [26] was 36.7 nM. It also gave a TGI [26] of 2530 nM, a GI50 [27] of 3.55 µM and a TGI [27] of 11.9 µM. It also gave a GI50 [28] of 38.1 nM, a TGI [28] of 1410 nM and a GI50 [29] of 654 nM. The TGI [29] was 2380 nM, the GI50 [30] was 631 nM and the TGI [30] was 8.45 µM. The GI50 [31] was 190 nM, the TGI [31] was 5 µM and the GI50 [32] was 48.1 nM. For the same compound, the TGI [32] was 3.28 µM, the GI50 [33] was 167 nM and the TGI [33] was 3.58 µM. It also gave a GI50 [34] of 80.3 nM, a TGI [34] of 1610 nM and a GI50 [35] of 36.5 nM. The TGI [35] was 1320 nM, the GI50 [36] was 419 nM and the TGI [36] was 2950 nM. For the same compound, the GI50 [37] was 361 nM, the TGI [37] was 4.41 µM and the GI50 [38] was 85.2 nM. For the same compound, the TGI [38] was 5.86 µM, the GI50 [39] was 60.8 nM and the TGI [39] was 1900 nM. The GI50 [40] was 56.3 nM, the TGI [40] was 4.02 µM and the GI50 [41] was 68 nM. The TGI [41] was 13.3 µM, the GI50 [42] was 594 nM and the TGI [42] was 2010 nM. The GI50 [43] was 1680 nM, the TGI [43] was 7.24 µM and the GI50 [44] was 72.9 nM. It also gave a TGI [44] of 14.1 µM, a GI50 [45] of 627 nM and a TGI [45] of 2780 nM. For the same compound, the GI50 [46] was 45 nM, the TGI [46] was 3.67 µM and the GI50 [47] was 4.77 µM. The TGI [47] was 17.5 µM, the GI50 [48] was 1390 nM and the TGI [48] was 3.04 µM. For the same compound, the GI50 [49] was 37.6 nM, the TGI [49] was 1090 nM and the GI50 [50] was 9.44 µM. For the same compound, the TGI [50] was 23.3 µM, the GI50 [51] was 52.7 nM and the TGI [51] was 889 nM. It also gave a GI50 [52] of 1540 nM, a TGI [52] of 3.53 µM and a GI50 [53] of 60 nM. For the same compound, the TGI [53] was 1410 nM, the GI50 [54] was 29.8 nM and the TGI [54] was 1400 nM. For the same compound, the GI50 [55] was 1310 nM, the TGI [55] was 3.61 µM and the GI50 [56] was 354 nM. For the same compound, the TGI [56] was 2190 nM, the GI50 [57] was 1670 nM and the TGI [57] was 7.69 µM. It also gave a GI50 [58] of 35.3 nM and a TGI [58] of 4.47 µM.
